Test results reported in patent US6787564B2, “Optically active clausenamides, process of the preparation thereof, pharmaceutical composition containing the same and their medical use” (Institute of Materia Medica, Chinese Academy of Medical …, priority 2002, dated 2004).

Tests used:
[1] = tested on: animals with anisodine-induced memory impairment; experiment: memory impairment induced by anisodine in water maze test; format: in vivo; conditions: anisodine + drug 10 mg/kg
Source text: (§1) This invention used one trial avoidance task—step-down and step-through tests and water maze to compare the improving memorial effects of (±), (−) clausenamide. The drugs were given orally once to animals before experiment in step-down and step-through tests. The water maze test lasted for 5 days in succession. The results were expressed as latency and errors number.

[2] = tested on: animals; experiment: nootropic action overall: step-down, step-through and water maze tests; format: in vivo; conditions: in vivo
Procedure: This invention used one trial avoidance task—step-down and step-through tests and water maze to compare the improving memorial effects of (±), (−) clausenamide.
The drugs were given orally once to animals before experiment in step-down and step-through tests. The water maze test lasted for 5 days in succession. The results were expressed as latency and errors number.
The effective dose of piracetam was 500 mg.kg^−1.

[3] = tested on: dentate gyrus granule cells; experiment: basal synaptic transmission / LTP in dentate gyrus of hippocampus in anesthetized rats (population spike amplitude); format: in vivo
Source text: Drugs or vehicle injection were delivered via cannula in the lateral cerebral ventricle at final concentration of 2×10^−6 mol/L. The population spike (PS) amplitude was employed as an indication of the level of excitation of the granular cell population in the dentate gyrus. To obtain this measurement, an evoked response was generated in the dentate gyrus granule cell layer by stimulating the pp at low freguency (0.033 Hz) with. single square wave pulses of 0.15 ms duration The LTP formation must accord the following creteria: The PS amplitude increased is over 30% and this high PS amplitude can persist for 40 min.

[4] = tested on: Bcl-2; experiment: Bcl-2 expression level by western blot in 6-OHDA treated Bax α high expressing PC12 cells; format: cell-based; conditions: 10^−7M, 10^−6M; 24 hours after 6-OHDA treatment
Source text: (§2) It means that Bax α expression may promote the production of reactive oxygen species. The antiapoptotic effect of (−) clausenamide may be attributed to its reduction of the mitochondrial MDA level and the increase of mitochondrial GSH level. The increased mitochondrial GSH may be the result of the increased Bcl-2 level. As Bcl-2 itself is not an antioxidant, it may promote the closing of PT pores, and form heterodimers with Bax α and protect the mitochondria from injury and thus reduce the production of reactive oxygen, species.

[5] = tested on: animals with anisodine-induced memory impairment; experiment: step-down test, memory impairment induced by anisodine; format: in vivo
Source text: as §1

[6] = tested on: animals with anisodine-induced memory impairment; experiment: step-through test, memory impairment induced by anisodine; format: in vivo
Source text: as §1

[7] = tested on: rats; experiment: mossy fiber sprouting in fascia dentata and hippocampal CA3 region; format: in vivo; conditions: 8 and 40 mg·kg^−1 orally daily for 10 days; adult rat
Source text: 2. […] This is morphological basis for levoclausenamide to incnease synaptic transmission (see FIGS. 1 and 2).

[8] = tested on: Bax α high expressing PC12 cells; experiment: mitochondrial GSH and MDA level in 6-OHDA treated Bax α high expressing PC12 cells; format: cell-based; conditions: for mitochondrial GSH level: without drug 9.84±1.20; for mitochondrial MDA level: without drug 2.46±0.19
Source text: as §2

[9] = tested on: BDNF; experiment: BDNF protein expression in cortical neurons and hippocampal pyramide cells; format: in vivo, rats; conditions: 8, 40 mg·kg^−1 orally daily for 10 days
[10] = tested on: calcineurin; experiment: calcineurin activity in the cortical and hippocampal tissue; conditions: without HFS; Nimodipine 2 nmol; mean ± S.D., n = 5; control 7.8 ± 0.6
Source text: The rats were anaesthetized with urethane carbonate. The recording and stimulating electrodes were made from Teflon coated stainless steel wires. The bipolar stimulating electrode was sterotaxically placed in the entorhinal cortex to stimulate the perforant path, and the evoked potential was extracellular recorded from the dentate gyrus granule cell layer of ipsilateral. The population spike (PS) is served as an indication of granule cell's excitation. Long term potentiation (LTP) was induced by a 200 Hz high frequency stimulation 5×single square wave pulses of 0.2 ms duration. The drug or vehicle (DMSO) were injected into lateral cerebral ventricle in a 5 μl volume over a 5 min period via a Hamilton syringe.

[11] = tested on: Ach, ChAT; experiment: Ach content and ChAT activity in cortex, hippocampus and striatum; conditions: in vivo
[12] = tested on: mitochondrial complex I; experiment: mitochondrial complex I activity in Bax α high expressing PC12 cells; format: cell-based; conditions: without drug 1.44±0.16
Source text: (§3) Obviously, the increased mitochondrial membrane potential is considered to be one of the antiapoptotic mechanisms of (−) Clausenamide. The increased mitochondrial complex I and complex IV activity may account for the increased mitochondrial membrane potential. The Bax α protein may induce apoptosis by affecting enzyme activities of the mitochondrial electron transfer chain. And the mitochondrial complex I and complex IV could be the targeting points of the Bax α protein.

[13] = tested on: mitochondrial complex IV; experiment: mitochondrial complex IV activity in Bax α high expressing PC12 cells; format: cell-based; conditions: without drug 0.09±0.019
Source text: as §3

[14] = tested on: potassium channel; experiment: potassium channel blockade (nootropic mechanism)
[15] = tested on: dentate gyrus of hippocampus; experiment: induction of LTP in hippocampal of rat (population spike amplitude); format: in vivo, SD rats; conditions: I.C.V.; means ± SD
Source text: Adult male SD rats were anesthetized to maintain a surgical level. A stainless steel cannula-recording electrode was placed in DG (dentate gyrus) of hippocampus using a stereotaxic instrument. The combination of cannula-recording electrode was constructed by insulating the outside of the cannula, except at the tip and top. In the top noninsulated area, a stainless steel wire was wrapped around the cannula and connected to the amplifier via an amphenol connector. The four pairs optically active clausenamides shown in table 9 was delivered by I.C.V. Responses were evoked via direct stimulation of the performant path (PP) using a stainless steel bipolar stimulating electrode. Constant current stimulation provided by a stimulator was delivered to the stimulating electrode through a Stimulus Isolation Unit.
The stimulating electrode was adjusted until a characteristic EPSP was observed under constant current. The evoked responses were amplified on a series alternating current preamplifier, using a microcomputer, and then stored for off-line analysis using DataWave software. The current intensity that elicited a 50% maximal response in each animal was determined and used for all subsequent stimulation. To measure treatment effects, responses were evoked once every 30 sec throughout the entire experiment, and population spike amplitude(PSA) were calculated.

[16] = tested on: β-AP (25-35)-treated rats; experiment: one trial passive avoidance of β-AP (25-35)-treated rats; format: in vivo; conditions: n = 9
[17] = anisodine + drug 10 mg/kg (Tab 7)
[18] = anisodine + drug 50 mg/kg (Tab 7)

CN1C(=O)[C@@H](O)[C@H](c2ccccc2)[C@@H]1[C@@H](O)c1ccccc1 [(−)clausenamide, 3S, 4R, 5R, 6S (−) Levoclausenamide]
Errors number [1]: 9.4 ± 5.9
nootropic action, times more potent than (±) clausenamide [2]: 5-10 times
nootropic action, times more potent than piracetam [2]: 50-100 times
increase of PS amplitude in comparison with vehicle group ([3]; 30-60 min after drug administration): 38.9-63.4%
LTP formation (PS amplitude increase over 30% persisting 40 min) ([3]; (−) at 2×10^−6 mol/L, (±) up to 5 times that): induce LTP formation
PS % at 15′, in comparison with before drug ([3]; icv, 2×10^−6 mol/L): 19.8%
PS % at 15′, in comparison with control (vehicle) group ([3]; icv, 2×10^−6 mol/L): 10.0%
PS % at 30′, in comparison with before drug ([3]; icv, 2×10^−6 mol/L): 48.5%
PS % at 30′, in comparison with control (vehicle) group ([3]; icv, 2×10^−6 mol/L): 38.9%
PS % at 45′, in comparison with before drug ([3]; icv, 2×10^−6 mol/L): 66.3%
PS % at 45′, in comparison with control (vehicle) group ([3]; icv, 2×10^−6 mol/L): 52.7%
PS % at 60′, in comparison with before drug ([3]; icv, 2×10^−6 mol/L): 81.2%
PS % at 60′, in comparison with control (vehicle) group ([3]; icv, 2×10^−6 mol/L): 63.4%
PS amplitude 30′ after drug ([3]; icv, 2×10^−6 mol/L, control 108 ± 7): 150 ± 11
PS amplitude 45′ after drug ([3]; icv, 2×10^−6 mol/L, control 110 ± 10): 168 ± 25
PS amplitude 60′ after drug ([3]; icv, 2×10^−6 mol/L, control 112 ± 7): 183 ± 30
PS amplitude 15′ after drug ([3]; icv, final concentration 2×10^−6 mol/L, control 110 ± 9): 121 ± 9
Bcl-2 expression level [4]: significantly increase the Bcl-2 expression level
Error number, Step-down ([5]; 5 mg/kg oral once): 0.5 ± 0.5
Latencies, Step-down ([5]; 5 mg/kg oral once): 186 ± 129 s
Error number, Step-down ([5]; 10 mg/kg oral once): 0.2 ± 0.4
Latencies, Step-down ([5]; 10 mg/kg oral once): 296 ± 97 s
Error number, Step-down ([5]; 50 mg/kg oral once): 0.2 ± 0.4
Latencies, Step-down ([5]; 50 mg/kg oral once): 265 ± 91 s
Latencies, Step-through ([6]; 5 mg/kg oral once): 47.9 ± 90 s
Error number, Step-through ([6]; 5 mg/kg oral once, 0.9% Nacl + anisodine 12.7 ± 4.6): 5.7 ± 4.7
Error number, Step-through ([6]; 10 mg/kg oral once (Table 4)): 6.5 ± 5.0
Latencies, Step-through ([6]; 10 mg/kg oral once (Table 4)): 59.4 ± 91 s
Error number, Step-through ([6]; 50 mg/kg oral once (Table 4)): 7.1 ± 3.6
Latencies, Step-through ([6]; 50 mg/kg oral once (Table 4)): 17.1 ± 12.4 s
Error number [6, 17]: 6.7 ± 11.0
Latencies [6, 17]: 138.2 ± 86.7 s
Error number [6, 18]: 5.4 ± 4.1
Latencies [6, 18]: 140.6 ± 96.4 s
mossy fiber sprouting in the fascia dentate and stratum lucidum [7]: dose-dependently increased
mitochondrial GSH level ([8]; 10^−5M): 17.78±1.04 nmol/mg pro
mitochondrial MDA level ([8]; 10^−6M): 1.54±0.13 nmol/mg pro
mitochondrial GSH level ([8]; 10^−6M): 15.10±0.95 nmol/mg pro
mitochondrial GSH level ([8]; 10^−7M, 6-OHDA treated): 12.29±0.99 nmol/mg pro
mitochondrial MDA level ([8]; 10^−7M): 1.76±0.17 nmol/mg pro
BDNF protein expression in the cortical neurons and pyramide cells in the hippocampus [9]: dose-dependently increased
calcineurin activity, Hippocampal tissue [10]: 10.4 ± 0.5 (μmol Pi)/hr/μ g protein
Ach content in cortex, hippocampus and striatum [11]: increased
ChAT activity in cortex, hippocampus and striatum [11]: increased
mitochondrial complex I activity ([12]; 10^−5M): 2.16±0.2 umol/mg pro/min
mitochondrial complex I activity ([12]; 10^−7M): 1.57±0.12 umol/mg pro/min
mitochondrial complex IV activity ([13]; 10^−5M): 0.18±0.01 umol/mg pro/min
mitochondrial complex IV activity ([13]; 10^−6M): 0.15±0.02 umol/mg pro/min
mitochondrial complex IV activity ([13]; 10^−7M): 0.12±0.015 umol/mg pro/min
potassium channel action [14]: potassium channel blocker
PSA (%), 15 min [15]: 131.8 ± 0.4%
PSA (%), 30 min [15]: 138.5 ± 8.9%
PSA (%), 60 min [15]: 158.1 ± 4.2%
Number of error, Acquisition ([16]; β-AP-treated + drug 8 mg/kg): 0.7 ± 0.24
Number of error, Training ([16]; β-AP-treated + drug 8 mg/kg): 3.1 ± 1.22
Number of error, Acquisition ([16]; β-AP-treated + drug 40 mg/kg): 1.1 ± 0.27
Number of error, Training ([16]; β-AP-treated + drug 40 mg/kg): 4.4 ± 0.87
